Measurements published in US12612386B2, “Heteroaryl-triazole compounds as pesticides” (Bayer Aktiengesellschaft, priority 2020, dated 2026).

Tests used:
Format in all cases: in vivo
[1] = tested on: brown planthopper (Nilaparvata lugens); assay: Nilaparvata lugens spray test; details: 96 h
Method: Nilaparvata lugens—Spray Test
(§1) • Solvent: 78.0 parts by weight of acetone • 1.5 parts by weight of dimethylformamide • Emulsifier: alkylarylpolyglycol ether
(§2) To produce a suitable preparation of active compound, 1 part by weight of active compound is mixed with the stated amount of solvents and is diluted with water, containing an emulsifier concentration of 1000 ppm, to the desired concentration. Further test concentrations are prepared by dilution with emulsifier containing water.
Rice plants (Oryza sativa) are sprayed with a preparation of the active ingredient of the desired concentration and the plants are infested with the brown planthopper (Nilaparvata lugens).
After 4 days mortality in % is determined. 100% means all planthoppers have been killed and 0% means none of the planthoppers have been killed.

[2] = tested on: green peach aphid (Myzus persicae); assay: Myzus persicae spray test (MYZUPE); details: 120 h, 100 g/ha, after 5 days
Method: Myzus persicae—Spray Test
• Solvent: 78.0 parts by weight acetone • 1.5 parts by weight dimethylformamide • Emulsifier: alkylarylpoly glycol ether
as §2
Chinese cabbage (Brassica pekinensis) leaf disks infected with all instars of the green peach aphid (Myzus persicae), are sprayed with a preparation of the active ingredient of the desired concentration.
After 5 days mortality in % is determined. 100% means all aphids have been killed and 0% means none of the aphids have been killed.
Myzus persicae—Spray Test (MYZUPE)
(§3) • Solvent: 78.0 parts by weight acetone • 1.5 parts by weight dimethylformamide • Emulsifier: alkylarylpolyglycol ether
After the specified period of time, mortality in % is determined. 100% means all aphids have been killed and 0% means none of the aphids have been killed.

[3] = tested on: fall armyworm larvae (Spodoptera frugiperda); assay: whole plant or invertebrate; details: 168 h
Method: Spodoptera frugiperda—Spray Test
as §3, §2
Maize (Zea mays) leaf sections are sprayed with a preparation of the active ingredient of the desired concentration. Once dry, the leaf sections are infested with fall armyworm larvae (Spodoptera frugiperda).
After 7 days mortality in % is determined. 100% means all caterpillars have been killed and 0% means none of the caterpillars have been killed.
Spodoptera frugiperda—Spray Test (SPODFR)
After the specified period of time, mortality in % is determined. 100% means all caterpillars have been killed and 0% means none of the caterpillars have been killed.

[4] = tested on: larvae of the southern green stink bug (Nezara viridula); assay: whole plant or invertebrate; details: 96 h
Method: Nezara viridula—Spray Test
as §1
as §2, with “solvent,” for “solvents”, “and the concentrate” for “and”
Barley plants (Hordeum vulgare) are sprayed with a test solution containing the desired concentration of the active ingredient and are infested with larvae of the southern green stink bug (Nezara viridula).
After 4 days mortality in % is determined. 100% means all the stink bugs have been killed; 0% means none of the stink bugs have been killed.

[5] = tested on: larvae of the banded cucumber beetle (Diabrotica balteata); assay: Diabrotica balteata spray test; details: 168 h, 100 g/ha (=32 μg/well), after 7 days, read-out: efficacy (seedling growth)
Method: Diabrotica balteata—Spray Test
as §1
as §2, with “solvent,” for “solvents”, “and the concentrate” for “and”
Soaked wheat seeds (Triticum aestivum) are placed in a multiple well plate filled with agar and some water and are incubated for 1 day to germinate (5 seeds per well). The germinated wheat seeds are sprayed with a test solution containing the desired concentration of the active ingredient. Afterwards each unit is infected with 10-20 larvae of the banded cucumber beetle (Diabrotica balteata).
After 7 days efficacy in % is determined. 100% means all the seedlings have grown up like in the untreated, uninfected control; 0% means none of the seedlings have grown.

Row | Compound | mortality at 500 g/ha [1] [%] | mortality at 100 g/ha [2] [%] | mortality at 100 g/ha [3] [%] | mortality at 500 g/ha [4] [%] | pest or weed control at 32 µg/disc, 100 g/ha [5] [%] | mortality at 100 g/ha [4] [%]
1 | CNC(=O)c1cc(-n2ncnc2[C@H](C)NC(=O)c2cc(OC(F)F)cc(OC(F)F)c2)ncn1 [I-94] | 100 | 100 | 100 | 100 | 100 | –
2 | CNC(=O)c1cc(-n2ncnc2[C@H](C)NC(=O)c2cc(OC(F)(F)F)cc(S(C)(=O)=O)c2)ncn1 [I-83] | 100 | 100 | 100 | 100 | 100 | –
3 | C[C@H](NC(=O)c1cccc(S(=O)(=O)C(F)(F)F)c1)c1ncnn1-c1cc(C(N)=O)ncn1 [I-140] | 90 | 100 | 100 | 100 | 100 | –
4 | CNC(=O)c1cc(-n2ncnc2[C@H](C)NC(=O)c2cc(C(F)(F)F)cc(S(C)(=O)=O)c2)ncn1 [I-81] | 100 | 100 | 100 | 100 | 100 | –
5 | C[C@H](NC(=O)c1cccc(C(F)(F)F)c1)c1ncnn1-c1cc(C(N)=O)ncn1 [I-92] | 100 | 100 | 100 | 100 | 100 | –
6 | C[C@H](NC(=O)c1cc(OC(F)(F)F)cc(C2(C#N)CC2)c1)c1ncnn1-c1cc(C(N)=O)ncn1 [I-120] | 100 | 90 | 100 | 100 | 100 | 100
7 | Cc1nc([C@H](C)NC(=O)c2cc(C#N)cc(C#N)c2)n(-c2cc(C(N)=O)ncn2)n1 [I-128] | 100 | – | – | 100 | 100 | 100
8 | CNC(=O)c1cc(-n2ncnc2[C@H](C)NC(=O)c2cc(C(F)F)cc(C(F)F)c2)ncn1 [I-134] | 100 | 90 | 100 | – | 100 | –
9 | CNC(=O)c1cc(-n2ncnc2[C@H](C)NC(=O)c2cc(Br)cc(OC(F)F)c2)ncn1 [I-72] | 100 | 90 | 100 | 100 | 80 | –
10 | Cc1nc([C@H](C)NC(=O)c2cc(C(F)(F)F)cc(C(F)(F)F)c2)n(-c2cc(C(N)=O)ncn2)n1 [I-136] | 100 | 90 | 100 | 100 | 100 | –
11 | C[C@H](NC(=O)c1cc(Cl)cc(C#N)c1)c1ncnn1-c1cc(C(N)=O)ncn1 [I-125] | 100 | 70 | 100 | 100 | 100 | 100
12 | C[C@H](NC(=O)c1cc(C#N)cc(OC(F)(F)F)c1)c1ncnn1-c1cc(C(N)=O)ncn1 [I-121] | 100 | 90 | 100 | 100 | 100 | 100
13 | Cc1nc([C@H](C)NC(=O)c2cc(C(F)(F)F)cc(S(C)(=O)=O)c2)n(-c2cc(C#N)ncn2)n1 [I-23] | 100 | – | – | 100 | 100 | –
14 | C[C@H](NC(=O)c1cc(F)cc(C#N)c1)c1ncnn1-c1cc(C(N)=O)ncn1 [I-77] | 100 | 100 | – | 100 | 100 | –
15 | C[C@H](NC(=O)c1cc(C(F)(F)F)cc(C(F)(F)F)c1)c1ncnn1-c1cc(C(=O)N(C)C)ncn1 [I-129] | 100 | 100 | 100 | 100 | 100 | –
16 | C[C@H](NC(=O)c1cc(Cl)cc(S(C)(=O)=O)c1)c1ncnn1-c1cc(C(N)=O)ncn1 [I-59] | 100 | 90 | – | 100 | 100 | –

Row | Compound | mortality at 500 g/ha [1] [%] | mortality at 100 g/ha [2] [%] | mortality at 100 g/ha [3] [%] | mortality at 500 g/ha [4] [%] | pest or weed control at 32 µg/disc, 100 g/ha [5] [%] | mortality at 100 g/ha [4] [%]
17 | Cc1nc([C@H](C)NC(=O)c2cccc(OC(F)(F)F)c2)n(-c2cc(C(N)=O)ncn2)n1 [I-101] | 100 | 90 | 100 | 100 | 100 | –
18 | C[C@H](NC(=O)c1cc(C(F)(F)F)cc(S(C)(=O)=O)c1)c1ncnn1-c1cc(C(N)=O)ncn1 [I-78] | 100 | 90 | 100 | 100 | 100 | –
19 | Cc1nc([C@H](C)NC(=O)c2cc(S(=O)(=O)C(F)(F)F)cc(S(=O)(=O)C(F)(F)F)c2)n(-c2cc(C#N)ncn2)n1 [I-29] | 100 | – | 100 | – | 100 | –
20 | Cc1nc([C@H](C)NC(=O)c2cc(Cl)cc(S(C)(=O)=O)c2)n(-c2cc(C(N)=O)ncn2)n1 [I-61] | 90 | – | – | 100 | – | –
21 | Cc1nc([C@H](C)NC(=O)c2cc(OC(F)(F)F)cc(S(C)(=O)=O)c2)n(-c2cc(C(N)=O)ncn2)n1 [I-32] | 90 | 90 | 100 | 100 | – | 90
22 | Cc1nc([C@H](C)NC(=O)c2cc(C(F)(F)F)cc(C(F)(F)F)c2)n(-c2cc(C(=O)N(C)C)ncn2)n1 [I-130] | 100 | – | 100 | 100 | 100 | –
23 | CC(C)N(C)C(=O)c1nccc(-n2ncnc2[C@H](C)NC(=O)c2cc(OC(F)(F)F)cc(OC(F)(F)F)c2)n1 [I-115] | 90 | 90 | 100 | – | 80 | –
24 | C[C@H](NC(=O)c1cc(F)cc(OC(F)F)c1)c1ncnn1-c1cc(C(N)=O)ncn1 [I-79] | 100 | 100 | 100 | 100 | 100 | –
25 | CNC(=O)c1cc(-n2ncnc2[C@H](C)NC(=O)c2cc(Cl)cc(S(C)(=O)=O)c2)ncn1 [I-60] | 100 | 90 | – | 100 | 100 | –
26 | C[C@H](NC(=O)c1cc(C#N)cc(C#N)c1)c1ncnn1-c1cc(C(N)=O)ncn1 [I-126] | 100 | – | – | 100 | – | 100
27 | CNC(=O)c1cc(-n2ncnc2[C@H](C)NC(=O)c2cc(Br)cc(OC(F)(F)C(F)F)c2)ncn1 [I-122] | 100 | – | 100 | 100 | 100 | –
28 | C[C@H](NC(=O)c1cc(C(F)F)cc(C(F)F)c1)c1ncnn1-c1cc(C(=O)N(C)C)ncn1 [I-139] | 100 | 100 | – | 100 | 100 | –
29 | C[C@H](NC(=O)c1cc(OC(F)(F)F)cc(S(C)(=O)=O)c1)c1nc(C2CC2)nn1-c1cc(C(=O)N(C)C)ncn1 [I-154] | 100 | 90 | 100 | 100 | – | –
30 | C[C@H](NC(=O)c1cc(C(F)F)cc(C(F)F)c1)c1ncnn1-c1cc(C(N)=O)ncn1 [I-133] | 100 | 100 | 100 | – | 100 | –
31 | C[C@H](NC(=O)c1cccc(F)c1)c1ncnn1-c1cc(C(N)=O)ncn1 [I-44] | 100 | – | – | 100 | 100 | 100
